Target: association reaction between recombinantly prepared mouse PrP (amino acids 23-231) and PrP-Sc aggregates prepared from the brain tissue of CJD patients (UniProt P04156+P04925)
Format: binding, human PrP-Sc (CJD patients); mouse PrP
Settings: for influence on association of fluorescence-labeled recombinant PrP to prion aggregates: SIFT, 20 mM potassium phosphate buffer, pH 6.0, 0.1% Nonidet-P40

Row | Structure (SMILES) | influence on association of fluorescence-labeled recombinant PrP to prion aggregates | number of bins per sector in two-dimensional histograms of the fluorescence intensity (FIG. 4, two-dimensional SIFT evaluation by sectors)
1 | CCCCCCCC/C=C\CCCCCCCC(=O)OC[C@H](COP(=O)(O)OCCN)OC(=O)CCCCCCC/C=C\CCCCCCCC [DOPE, dioleyl-L-phosphatidylethanolamine] | no influence on aggregation was found | –
2 | CCCCCCCC/C=C\CCCCCCCCOCC(C[N+](C)(C)CCNC(=O)C(CCCNCCCN)NCCCN)OCCCCCCCC/C=C\CCCCCCCC.O=C([O-])C(F)(F)F (stereo not drawn) [DOSPA, 2,3-dioleyloxy-N-[2-(sperminecarboxamido)ethyl]-N,N-dimethyl-1-propanaminium trifluoroacetate] | inhibits the association of fluorescence-labeled recombinant PrP to prion aggregates at low micromolar concentrations | number of bins is decreased in sectors 1 to 9
